According to patent US6232340A, “Vanadium complexes and derivatives thereof and methods related thereto” (priority 1998, dated 2001):
“Also recorded” adds a separate entry of the source.

What was measured:
[1] = system: Collagen Induced Arthritis; test: Treatment of collagen induced arthritis (CIA) with BMOV and NAC; format: in vivo, rats
Procedure: CIA in rats is a model of chronic inflammatory synovitis with pannus formation, neovascularization, and joint destruction similar to rheumatoid arthritis (RA). After immunization with native collagen type II (CII) in incomplete Freund's adjuvant, 90-100% of genetically susceptible rats reliably develop clinical arthritis within 10 to 14 days.
Arthritis is induced in syngeneic 8 week old female Louvain (LOU) rats by intradermal immunization under ether anaesthesia on Day 0 with 0.5 mg native chick collagen II (CII) (Genzyme, Boston, Mass.) solubilized in 0.1M acetic acid and emulsified in incomplete Freund's adjuvant (IFA) (Difco, Detr, Mich.) (D. E. Trentham et al., J. Exp. Med. 146:857-868, 1977). Onset of clinical arthritis typically develops in 90-100% of control rats 10-12 days post CII immunization.
On day 10 post immunization, arthritis-induced rats are randomized into two groups. Control rats (n=10) receive only an aqueous vehicle at a dose of 100 mg/kg/day s.c. The experimental group (n=10) receives an aqueous vehicle at 100 mg/kg/day s.c., as well as O[BEOV]2 subcutaneously at the appropriate dose.
The severity of clinical arthritis in each limb is scored daily based on an objective integer scale of 0-4 (D. E. Trentham et al., J. Exp. Med. 146:857-868, 1977). A score of 0 indicates an unaffected limb, while a score of 4 represents fulminant erythema and edema involving distal digits. The arthritic index is defined as the sum of its four limb scores. Since CIA typically involves only the hind limbs, an arthritic index of 6 to 8 is considered to represent severe arthritis.
At the end of the study (Day 18-post arthritis onset), hind limb radiographs are obtained. An investigator blinded to the treatment protocol assigns a score to each limb, based on the degree of soft tissue swelling, joint space narrowing, periosteal new bone information, and the presence of erosions and ankylosis (0=normal; 3=maximal joint destruction). The radiographic index is defined as the sum of the limbs.
The humoral immunity is evaluated by collecting rat serum on Day 18 post arthritis onset for measuring anti-CII IgG by an enzyme linked immunosorbent assay (ELISA) (E. Brahn and D. E. Trentham, Cell Immunol. 86:421-428, 1984; E. Brahn and D. E. Trentham, Cell Immunol. 118:491-503, 1989). Antibody titers are normalized against a previously standardised curve and absorbance read at 490 nm at a serum dilution of 1:2500.
Synovium is selected from rats on Day 5 and Day 18-post arthritis onset to study joint morphology using electron microscopy. On Day 18-post arthritis onset, one ankle joint of each arthritic control and O[BEOV]2 -treated rat is removed, critical point dried, and gold sputter-coated for scanning electron microscopy to examine the trochlear surfaces. Conventional transmission electron microscopy is also performed on the articular cartilage of the trochlear surfaces of native, arthritic control, and O[BEOV]2 -treated animals.

collagenase = test: Northern blot, synovial collagenase expression in CIA rats; format: in vivo; settings: vs control group
Description: (§1) Collagenase, stromelysin, and IL-1 mRNA were readily detected in the vehicle control group. When normalized for RNA loading, expression of all three genes was decreased in the animals in the BMOV-treated group compared to the control group.

stromelysin = test: Northern blot, synovial stromelysin expression in CIA rats; format: in vivo; settings: vs control group
Description: as §1

IL-1 = test: Northern blot, synovial IL-1 expression in CIA rats; format: in vivo; settings: vs control group
Description: as §1

[2] = Maximum Tolerated Dose study, s.c. b.i.d. for nine days in DBA-2 mice (Example 33); format: in vivo, female mice (DBA-2)
Procedure: A Maximum Tolerated Dose (M.T.D.) study was undertaken to determine a safe tolerable dose for administration of OHBEOV through a parenteral (s.c.) route of administration delivered twice daily (b.i.d.) for nine days in female mice (DBA-2). The protocol was as follows. 14 DBA-2 mice were randomly divided into groups of 2 for a total of 7 groups. Groups were treated as follows. Vehicle (sterile isotonic phosphate buffer, pH 7.2) was filtered through 0.22 pm sterile filter (Costar 140666). OHBEOV was dissolved with gentle heating and stirring for about 20 min.
(§2) 1) Vehicle control: 300 μl/dose for a total of 600 μl/day.
7) 300 μl of 2 mg/mL OHBEOV to be injected for a total of 1200 μg/day.
Mice were weighed as a group (N=2) prior to injection in the morning. […] Treatment continued for a total of nine days. Groups were observed and weighed daily for 2 weeks following the final treatment and observed for behavioral signs of toxicity i.e. reduced preening, and mobility and organ failure, i.e., weight loss, death. Following this period, mice were terminated with carbon dioxide. Liver, spleen and kidney (and other organs) were weighed and kept for histology if appearance appeared abnormal.

[3] = Maximum Tolerated Dose study, i.v. b.i.d. for nine days in DBA-2 mice (Example 34); format: in vivo, female mice (DBA-2)
Procedure: A Maximum Tolerated Dose (M.T.D.) study was undertaken to determine a safe tolerable dose for administration of OHBEOV through an intravenous route of administration delivered twice daily for nine days in female mice (DBA-2). The protocol was as follows. 8 DBA-2 female mice were randomly divided into groups of 2 for a total of 4 groups. Groups were treated as follows. Vehicle (sterile isotonic phosphate buffer, pH 7.2) was filtered through 0.22 μm sterile filter (Costar 140666).
as §2
Mice were weighed as a group (N=2) prior to injection in the morning. […] Treatment continued for a total of nine days. Groups were observed and weighed daily for 2 weeks following the final treatment and observed for behavioral signs of toxicity, i.e., reduced preening, and mobility and organ failure, i.e., weight loss, death. Following this period, mice were terminated with carbon dioxide. Liver, spleen and kidney (and other organs) weighed and kept for histology if appearance appeared abnormal.

[4] = Plasma glucose levels following acute and b.i.d. dosing (insulin mimetic effect); format: in vivo
MDAY-D2 tumors = test: Tumor efficacy on MDAY-D2 tumors in DBA-2 mice (Example 36); format: in vivo, murine tumor cells in DBA-2 mice
Procedure: The protocol used is as follows. 10 DBA-2 mice were randomly divided into 2 groups. Groups were treated as follows. […] Vehicle (isotonic phosphate buffer) was filtered through 0.22 μm sterile filter (Costar 140666).
(§3) The groups were as follows:
(§4) 1) Vehicle control: isotonic phosphate buffer. 300 μl/dose, total of 600 μl/day.
(§5) Treatment continued for a total of nine days. Mice were terminated on day 10 with carbon dioxide. Tumors were removed and weighed following blotting.

[5] = system: H460 (human non-small cell lung cancer); test: Efficacy on H460 human non-small cell lung cancer xenograft in SCID-RAG-2 mice (Example 37); format: in vivo, human tumor cells in SCID-RAG-2 female mice; settings: for tumor size reduction (caliper volumes) / reduction of tumor weight relative to control: 500 μg/dose s.c. b.i.d., 9 days; for tumor size reduction (caliper volumes): vs control; for reduction of tumor weight relative to control: day 10
Procedure: A study was undertaken to confirm the efficacy of OHBEOV and O[BEOV]2 using SCID-RAG-2 female mice with implanted human H460 tumors (lung cancer). […] The protocol used was as follows. 15 SKID-RAG-2 mice were randomly divided into 3 groups. Groups were treated as follows. […] Vehicle (isotonic phosphate buffer) was filtered through 0.22 pm sterile filter (Costar 140666).
as §3, §4, §5

[6] = isotonic phosphate buffered saline
[7] = system: H460 human non-small cell lung cancer
Procedure: The purpose was to establish safe efficacious levels of s.c., b.i.d. administration of OHBEOV for 9 days. The protocol used is as follows. 20 female Scid/Rag-2 mice were randomly divided into 4 groups. Groups were treated as follows. H460 tumor cells were inoculated (50 μl 10^6 cells bilaterally in the posterior dorsal region) as discussed earlier. On day 11 following tumor inoculation, the 9 day treatment began. Vehicle (isotonic phosphate buffer) filtered through 0.22 μm sterile filter (Costar 14066).
Mice were weighed as a group prior to injection in the morning. Injections were s.c. in the neck region distal to the tumor sight and were delivered b.i.d. between 8-9 a.m. and between 4-5 p.m. Tumor volumes were estimated on a daily basis from measurements taken with calipers.

[8] = system: drug resistant cell lines; settings: previous studies; cited from earlier work
non-proliferating cells = settings: previous studies; cited from earlier work
proliferating cells = settings: previous studies; cited from earlier work
synoviocytes = settings: previously shown; cited from earlier work
[9] = xenograft model of human lung cancer

## Cc1occc(=O)c1[O-].Cc1occc(=O)c1[O-].[O]=[V+2] [BMOV, Bis(maltolato)oxovanadium(IV)]
[1]; 10 mg/kg/day
  diarrhoea: not observed
[1]; 15 mg/kg/day on Day 11 post arthritis onset
  diarrhoea: minor diarrhoea
[1]; joints vs control
  cartilage damage (scanning and transmission electron micrographs): little cartilage damage and intact cartilage
[1]; vs control rats
  trochlear surface of articular cartilage: normal trochlear surface
[1]; vs native animal
  articular cartilage ultrastructure (transmission electron micrographs): indistinguishable from the native animal
collagenase; normalized for RNA loading
  inhibition of collagenase gene expression: 78%
collagenase
  synovial expression of collagenase: reduced
stromelysin; normalized for RNA loading
  inhibition of stromelysin gene expression: 58%
stromelysin
  synovial expression of stromelysin: reduced
IL-1; printed "IL-In", normalized for RNA loading
  inhibition of IL-1 gene expression: 85%
IL-1
  synovial expression of IL-1: to a lesser degree, IL-1, were reduced

## CC(=O)N[C@@H](CS)C(=O)O [NAC]
[1]; NAC alone
  arthritis severity: developed severe arthritis; also recorded: no appreciable effect on the clinical severity of CIA

## CCc1occc(=O)c1[O][V](=[O])([OH])[O]c1c(CC)occc1=O [OHBEOV, Bis(2-ethyl-3-hydroxy-4-pyronato)hydroxyoxovanadium(V)]
[2]; 600 μg/dose s.c., visual inspection
  spleen appearance upon necropsy: enlarged
[2]; b.i.d., s.c. for 9 days
  maximum tolerated dose: 500 µg/day
[2]; doses up to and including 500 μg (1000 μg/day) s.c., 9 day treatment and 14 day follow up
  weight loss: less than 15%
[2]; maximum dose of 600 μg s.c.
  weight loss of one animal terminated: 25%
[2]; per dose, s.c. b.i.d., 9 days, well tolerated
  tolerability (doses up to and including): 500 µg
[2]; s.c.
  weight recovery following termination of treatment: all animals regained their original weight
[2]; s.c., higher doses
  skin lesions at the injection site: some skin lesions were noted
[2]; treatment protocol and dose level used to demonstrate tumor efficacy
  weight loss: less than 15%
[3]; doses up to and including 300 μg (600 μg/day) i.v., 9 day treatment and 14 day follow up
  weight loss: less than 15%
[3]; i.v.
  weight recovery following termination of treatment: all animals regained their original weight
[3]; per dose, i.v. b.i.d., 9 days, well tolerated
  tolerability (doses up to and including): 300 µg
[4]; acute and b.i.d. dosing
  plasma glucose levels following dosing: decreased following dosing
[4]; following dosing, non-diabetic animals
  plasma glucose level (normoglycemic range): 4 mM
[4]; single and multiple b.i.d. dosing
  time for plasma glucose to return to pre-dosing levels: ≤ 1 h
MDAY-D2 tumors; 500 μg/dose s.c. b.i.d., 9 days, vs control
  tumor size reduction (caliper volumes): significant reduction in tumor size
MDAY-D2 tumors; 500 μg/dose s.c. b.i.d., 9 days, day 10
  reduction of tumor weight relative to control: approximately 70%
MDAY-D2 tumors; murine solid tumor model at maximum tolerated dose, s.c. b.i.d. 9 days
  tumor efficacy: significant tumor efficacy was demonstrated
[5]
  tumor size reduction (caliper volumes): significant reduction in tumor size
  reduction of tumor weight relative to control: approximately 70%
[5]; human lung cancer xenograft at maximum tolerated dose, s.c. b.i.d. 9 days
  tumor efficacy: significant tumor efficacy was demonstrated
[6]
  maximum solubility: 6000 µg/mL
[7]; 600-1000 μg/day s.c., day 10
  dose-response of mean tumor weight: dose-response relationship
[7]; atomic absorption spectroscopy, end of study
  correlation of tumor vanadium with tumor size and dose: strongly correlated
[7]; in vivo
  myelosuppression: no evidence of myelosuppression
  plasma leukocyte count / immune response: no significant changes in plasma leukocyte count
[7]; [9]
  anti-tumor activity: significant dose-dependent anti-tumor activity
  final tumor size reduction: approximately 70%

## [O]=[V]([O-])([O-])[O-] [orthovanadate]
[8]
  toxicity to drug resistant cell lines: equally toxic to all the drug resistant cell lines
non-proliferating cells
  effect on non-proliferating cells: did not affect the non-proliferating cells
Proliferating cells
  effect on proliferating cells: toxic to proliferating cells
synoviocytes
  cytotoxicity to synoviocytes: cytotoxic to the cells
  synoviocyte proliferation: inhibited synoviocyte proliferation

## O=S(=O)([O-])[O-].[O]=[V+2] [vanadyl sulphate]
synoviocytes
  cytotoxicity to synoviocytes: cytotoxic to the cells
  synoviocyte proliferation: inhibited synoviocyte proliferation

## μ-Oxobis[bis(2-ethyl-3-hydroxy-4-pyronato)oxovanadium(V)] [O[BEOV]2]
[5]
  tumor size reduction (caliper volumes): significant reduction in tumor size
  reduction of tumor weight relative to control: approximately 70%
